Laboratory results reported in patent US20240207264A1, “PHARMACEUTICAL COMPOSITIONS COMPRISING INHIBITORS OF THE ANDROGEN RECEPTOR AND USES THEREOF” (ESSA PHARMA INC., priority 2021, published 2024).

Legend:
VCaP tumors = assay: VCaP prostate cancer xenograft model; type: in vivo, SCID Beige male mice; settings: VCaP (amplified AR, some AR-V7), castrated male mice, 15 mg/kg, Solution, qd24
LNCaP = LNCaP prostate cancer xenograft model; type: in vivo; settings: LNCaP (AR FL), castrated male mice, 30 mg/kg, Solution, qd24
Method: (§1) Compound A's activity was measured in a variety of castrate-sensitive and castrate-resistant prostate cancer (CRPC) xenograft models (Table 32).

LNCaP95 = LNCaP95 prostate cancer xenograft model; type: in vivo; settings: LNCaP95 (high level AR-V7), castrated male mice, 15 mg/kg, Solution, qd24
Method: as §1

PC-3 = PC-3 prostate cancer xenograft model; type: in vivo; settings: PC-3 (non functional AR), intact male mice, 15 mg/kg, Solution, qd28
Method: as §1

HID28 = assay: Enzalutamide resistant patient-derived xenograft (PDX) model HID28; type: in vivo, nude mice; settings: HID28 PDX (AR+ PSA+), castrated male mice, 15 mg/kg, Solution, qd28
Method: as §1
For example, intact male nude mice were engrafted with HID28 tumor fragments and once tumors reached ˜150 mm^3 the mice were castrated. The mice were enrolled in the experiment once the tumors started to regrow, 10 days post-castration. Compound A was tested in the HID28 PDX model at 60 mg/kg, QD for 28 days using SDD formulation with HPMCAS-H in 0.5% Methocel A4M in water.
Mean tumor volume in castrated nude mice bearing enzalutamide resistant patient-derived xenograft (PDX) model HID28 was measured after oral treatment with solid dispersion composition of Compound A or enzalutamide for 28 days (n=6-7 per group) is shown in FIG. 16B.

[1] = Gastric-to-intestinal buffer (G-IB) transfer dissolution test; type: physicochemical; settings: 0.5% SIF in PBS pH 6.5, dose 150 μgA/mL
Method: Dissolution: The crystalline Compound A and the five SDD compositions (A-E from Example 4) is were tested in a 2-stage dissolution test designed to evaluate dissolution rate as well as inhibition of crystallization on transfer from simulated gastric to simulated intestinal media. Additionally, SDD composition E was also tested with additional HPMCAS-HF powder at a ratio of 1:1 SDD/HPMCAS-HF (SDD composition F).
For the gastric-to-intestinal buffer (G-IB) transfer dissolution test, pH 2 (“gastric”) media was added to each sample at a target dose concentration of 300 μgA/mL. After 30 minutes of exposure to gastric media, concentrated simulated intestinal buffer (TB) is added to reach a final composition of 0.5% SIF in PBS, pH 6.5 at half the dose concentration (150 μgA/mL). The concentration was monitored by U fiber optic probes in situ as well as being assessed by either microcentrifugation (15,800×g) or ultracentrifugation (380,000×g).
The microcentrifuge separates the precipitate (undissolved drug) and total solubilized drug Total solubilized drug consists of three solubilized species: freely solubilized drug (“free drug”), drug associated with bile salt micelles (“micelle bound drug”), and drug in small aggregate roughly 50-300 nm in size (“colloidal drug”). The ultracentrifuge further separates the colloidal drug and the supernatant contains only free drug and micelle bound drug. […]

[2] = Amorphous solubility by slow addition from organic stock, UV/scattering detection; type: physicochemical; settings: for solubility: kinetic from dmso stock
Source text: Solubility: Generally, the solubility of an amorphous form is higher than that of the corresponding crystal form, due to the lack of crystalline lattice forces in the amorphous state. Solubility of the amorphous form of Compound A was studied by slow addition of the amorphous form from an organic stock solution into the pH 6.5 phosphate-buffered saline (PBS) solution or 0.5% wt simulated intestinal fluid (SIF) in pH 6.5 PBS. When the amorphous solubility is reached, a drug-rich phase forms which typically scatters light (e.g., liquid-liquid phase separation or LLPS), which can be detected by scattering of UV/Visible light and/or by dynamic light scattering (DLS).
No scattering event prior to crystallization was observed.

With `CNC(=O)c1ccc(N2C(=S)N(c3ccc(C#N)c(C(F)(F)F)c3)C(=O)C2(C)C)cc1F` [Enzalutamide, enzalutamide, reference compound] the “TGI (Tumor Growth Inhibition)” value (VCaP tumors) was 66%, the “TGI (Tumor Growth Inhibition)” value (LNCaP) was greater than 100% and the “TGI (Tumor Growth Inhibition)” value (LNCaP95) was less than 0%. For the same compound, the “TGI (Tumor Growth Inhibition)” value (PC-3) was 0% and the “TGI (Tumor Growth Inhibition)” value (HID28) was less than 0%.
With `CC(C)(c1ccc(OCc2ccnc(NS(C)(=O)=O)n2)cc1)c1cc(Cl)c(OCCCl)c(C#N)c1` [Crystalline Compound A, N-(4-((4-(2-(3-chloro-4-(2-chloroethoxy)-5-cyanophenyl)propan-2-yl)phenoxy)methyl)pyrimidin-2-yl)methanesulfonamide] the “Concentration, IB (90 min)” value [1] was 7 μgA/mL.
In the case of `CC(C)(c1ccc(OCc2ccnc(NS(C)(=O)=O)n2)cc1)c1cc(Cl)c(OCCCl)c(C#N)c1` [amorphous form of Compound A, N-(4-((4-(2-(3-chloro-4-(2-chloroethoxy)-5-cyanophenyl)propan-2-yl)phenoxy)methyl)pyrimidin-2-yl)methanesulfonamide], the solubility ([2]; 0.5% wt simulated intestinal fluid (SIF) in pH 6.5 PBS, fassgf or other biorelevant, 0.5% SIF (pH 6.5)) was greater than 25 µg/mL, the solubility ([2]; pH 6.5 phosphate-buffered saline (PBS), aqueous buffer, pH 6.5 PBS) was greater than 2.5 µg/mL and the “amorphous solubility relative to crystalline solubility” value ([2]; simulated intestinal media) was “at least 20 ×”.
